In the supplement of paper PMC10307832:

Legend:
Test in all cases: relative viability (nuclei count vs DMSO), 5 days (fraction); higher = more cells survive
Doramapimod + Phenformin = compound: Cc1ccc(-n2nc(C(C)(C)C)cc2NC(=O)Nc2ccc(OCCN3CCOCC3)c3ccccc23)cc1 [Doramapimod] + N=C(N)NC(=N)NCCc1ccccc1 [Phenformin] (partner 250 µM)
Procedure, shortened: (§1)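 Values are medians from duplicate plates. Each reflects relative viability, defined as the nuclei count of treated wells over that of vehicle wells. Lung cancer cell lines in 1536-well plates were pin-tool dosed one day after seeding with one drug alone or with a fixed anchor-drug dose plus five library-drug doses (not always all listed) in √10 steps, then fixed, stained and imaged at 4× after 5 days.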

Doramapimod + Trametinib = compound: Cc1ccc(-n2nc(C(C)(C)C)cc2NC(=O)Nc2ccc(OCCN3CCOCC3)c3ccccc23)cc1 [Doramapimod] + CC(=O)Nc1cccc(-n2c(=O)n(C3CC3)c(=O)c3c(Nc4ccc(I)cc4F)n(C)c(=O)c(C)c32)c1 [Trametinib] (partner 0.02 µM)
Procedure, shortened: as §1

IPA-3 + OSI-027 = compound: C1=CC=C2C(=C1)C=CC(=C2SSC3=C(C=CC4=CC=CC=C43)O)O [IPA-3] + COc1cccc2cc(-c3nc([C@H]4CC[C@H](C(=O)O)CC4)n4ncnc(N)c34)[nH]c12 [OSI-027] (partner 0.5 µM)
Procedure, shortened: as §1

IPA-3 + Dasatinib = compound: C1=CC=C2C(=C1)C=CC(=C2SSC3=C(C=CC4=CC=CC=C43)O)O [IPA-3] + Cc1nc(Nc2ncc(C(=O)Nc3c(C)cccc3Cl)s2)cc(N2CCN(CCO)CC2)n1 [Dasatinib] (partner 0.075 µM)
Procedure, shortened: as §1

| Cell Line | relative viability (Doramapimod + Phenformin; first compound 0.02 µM) | relative viability (Doramapimod + Phenformin; first compound 0.06325 µM) | relative viability (Doramapimod + Phenformin; first compound 0.2 µM) | relative viability (Doramapimod + Phenformin; first compound 0.6325 µM) | relative viability (Doramapimod + Phenformin; first compound 2 µM) | relative viability (Doramapimod + Trametinib; first compound 0.02 µM) | relative viability (Doramapimod + Trametinib; first compound 0.06325 µM) | relative viability (Doramapimod + Trametinib; first compound 0.2 µM) | relative viability (Doramapimod + Trametinib; first compound 0.6325 µM) | relative viability (Doramapimod + Trametinib; first compound 2 µM) | relative viability (IPA-3 + OSI-027; first compound 0.2 µM) | relative viability (IPA-3 + OSI-027; first compound 0.6325 µM) | relative viability (IPA-3 + OSI-027; first compound 2 µM) | relative viability (IPA-3 + OSI-027; first compound 6.325 µM) | relative viability (IPA-3 + OSI-027; first compound 20 µM) | relative viability (IPA-3 + Dasatinib; first compound 0.2 µM) | relative viability (IPA-3 + Dasatinib; first compound 0.6325 µM) | relative viability (IPA-3 + Dasatinib; first compound 2 µM) | relative viability (IPA-3 + Dasatinib; first compound 6.325 µM) | relative viability (IPA-3 + Dasatinib; first compound 20 µM) |
| --- | --- | --- | --- | --- | --- | --- | --- | --- | --- | --- | --- | --- | --- | --- | --- | --- | --- | --- | --- | --- |
| NCI-H647 | 0.436 | 0.593 | 0.614 | 0.543 | 0.494 | 0.468 | 0.445 | 0.481 | 0.6 | 0.523 | 1.04 | 0.576 | 0.629 | 0.676 | 0.301 | 0.271 | 0.175 | 0.192 | 0.115 | 0.0437 |
| NCI-H1975 | 0.41 | 0.382 | 0.411 | 0.415 | 0.397 | 0.337 | 0.307 | 0.348 | 0.4 | 0.331 | 0.936 | 0.732 | 0.675 | 0.762 | 0.706 | 0.466 | 0.368 | 0.337 | 0.334 | 0.299 |
| NCI-H358 | 0.301 | 0.314 | 0.305 | 0.385 | 0.356 | 0.163 | 0.137 | 0.124 | 0.15 | 0.156 | 0.895 | 0.733 | 0.746 | 0.69 | 0.758 | 0.219 | 0.145 | 0.186 | 0.213 | 0.158 |
| PC-3 [JPC-3] | 0.506 | 0.475 | 0.474 | 0.502 | 0.453 | 0.849 | 0.726 | 0.748 | 0.839 | 0.845 | 0.8 | 0.774 | 0.76 | 0.655 | 0.735 | 1.08 | 1.02 | 1.04 | 0.865 | 1.01 |
| NCI-H1792 | 0.389 | 0.381 | 0.217 | 0.476 | 0.214 | 0.446 | 0.407 | 0.379 | 0.374 | 0.27 | 0.789 | 0.718 | 0.641 | 0.711 | 0.792 | 1.01 | 0.81 | 0.807 | 0.895 | 1.03 |
| NCI-H596 | 0.672 | 0.689 | 0.672 | 0.795 | 0.703 | 0.802 | 0.845 | 0.915 | 0.852 | 0.806 | 0.761 | 0.681 | 0.757 | 0.668 | 0.865 | 0.635 | 0.573 | 0.765 | 0.69 | 0.752 |
| RERF-LC-KJ | 0.401 | 0.443 | 0.395 | 0.472 | 0.458 | 0.969 | 0.881 | 0.901 | 0.984 | 0.885 | 0.668 | 0.563 | 0.58 | 0.554 | 0.619 | 0.983 | 0.729 | 0.837 | 0.759 | 0.789 |
| NCI-H322M | 0.813 | 0.782 | 0.852 | 0.909 | 0.828 | 0.429 | 0.519 | 0.541 | 0.524 | 0.498 | 0.597 | 0.521 | 0.569 | 0.597 | 0.61 | 0.228 | 0.248 | 0.248 | 0.309 | 0.264 |
| COR-L 105 | 0.513 | 0.461 | 0.443 | 0.619 | 0.453 | 0.391 | 0.419 | 0.478 | 0.462 | 0.318 | 0.9 | 0.569 | 0.603 | 0.74 | 0.738 | 0.401 | 0.34 | 0.305 | 0.332 | 0.272 |
| NCI-H1993 | 0.512 | 0.484 | 0.543 | 0.542 | 0.548 | 0.458 | 0.504 | 0.622 | 0.45 | 0.434 | 0.555 | 0.556 | 0.539 | 0.556 | 0.504 | 0.567 | 1.77 | 0.63 | 0.364 | 0.585 |
| ABC-1 | 0.208 | 0.232 | 0.278 | 0.281 | 0.221 | – | – | – | – | – | 0.55 | 0.426 | 0.457 | 0.564 | 0.567 | 0.666 | 0.477 | 0.536 | 0.708 | 0.58 |
| NCI-H1563 | 0.653 | 0.682 | 0.653 | 0.806 | 0.739 | – | – | – | – | – | 0.841 | 0.794 | 0.74 | 0.828 | 0.716 | 0.418 | 0.506 | 0.447 | 0.537 | 0.442 |
| A549 | 0.177 | 0.165 | 0.126 | 0.136 | 0.132 | – | – | – | – | – | – | – | – | – | – | – | – | – | – | – |
| NCI-H1623 | 0.635 | 0.636 | 0.57 | 0.354 | 0.544 | – | – | – | – | – | 0.466 | 0.436 | 0.431 | 0.413 | 0.375 | 0.509 | 0.579 | 0.561 | 0.546 | 0.617 |
| HCC-44 | 0.267 | 0.247 | 0.22 | – | 0.241 | 1.08 | 1.2 | 1.11 | 1.18 | 1.06 | 0.516 | 0.704 | 0.489 | 0.482 | 0.484 | – | – | – | – | – |
